This note sets out measurements from ChEMBL document CHEMBL1201862, “PubChem BioAssay data set” (2004).

Test [1] has as its target Cytochrome P450 2C9 (Homo sapiens, UniProt P11712). To be noted: Potency.
For test [2], the target named is T1, Cytochrome P450 2D6 (Homo sapiens, UniProt P10635). As to the kind of experiment: qHTS Assay for Inhibitors and Substrates of Cytochrome P450 2D6. [Related pubchem assays: 410 ]. Particulars: read-out: Potency. In kind it is ADME.
Test [3] concerns the target T2, Estrogen receptor (Homo sapiens, UniProt P03372).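 Also: potency for inhibiting coactivator peptide recruitment to the receptor.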
T2 sequence (P03372 whole entry): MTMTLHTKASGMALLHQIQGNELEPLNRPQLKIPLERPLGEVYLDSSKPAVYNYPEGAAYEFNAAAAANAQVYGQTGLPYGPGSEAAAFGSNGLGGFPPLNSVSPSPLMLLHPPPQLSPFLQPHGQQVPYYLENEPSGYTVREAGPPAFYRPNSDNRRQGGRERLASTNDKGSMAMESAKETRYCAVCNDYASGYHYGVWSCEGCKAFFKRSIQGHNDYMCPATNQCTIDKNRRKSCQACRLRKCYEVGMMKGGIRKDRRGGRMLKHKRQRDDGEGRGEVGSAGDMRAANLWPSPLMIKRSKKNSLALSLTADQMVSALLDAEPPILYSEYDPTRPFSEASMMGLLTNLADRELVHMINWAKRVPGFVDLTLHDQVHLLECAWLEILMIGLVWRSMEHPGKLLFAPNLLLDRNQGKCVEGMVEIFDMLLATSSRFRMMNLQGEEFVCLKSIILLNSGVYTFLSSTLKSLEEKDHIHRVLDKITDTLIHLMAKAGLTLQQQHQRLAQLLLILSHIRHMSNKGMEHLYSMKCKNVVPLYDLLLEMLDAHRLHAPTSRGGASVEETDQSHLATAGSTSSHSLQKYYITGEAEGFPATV

Test [4] concerns the target Peroxisome proliferator-activated receptor gamma/Nuclear receptor coactivator 1 (Homo sapiens, UniProt P37231). As to the kind of experiment: TR-FRET dose response biochemical High Throughput Screening assay for agonists of the steroid receptor coactivator 1 (SRC-1) recruitment by the peroxisome proliferator-activated receptor gamma (PPAR gamma): non-selective agonists. [Related pubchem assays (depositor defined):AID1300, AID1808, AID504735, AID631]. In kind it is protein assay.

The target in test [5] is Peroxisome proliferator-activated receptor gamma/Nuclear receptor coactivator 3 (Homo sapiens, UniProt P37231). The experiment in a line: TR-FRET dose response biochemical High Throughput Screening assay for agonists of the steroid receptor coactivator 3 (SRC-3) recruitment by the peroxisome proliferator-activated receptor gamma (PPAR gamma): non-selective agonists. [Related pubchem assays: 1301 (Confirmation screen.), 1048 (Primary screen.)]. The format is functional. In general terms: Time-resolved FRET reads energy transfer from a long-lived donor to a nearby acceptor.

Test [6] deals with Peroxisome proliferator-activated receptor gamma/Nuclear receptor coactivator 2 (Homo sapiens, UniProt P37231). The experiment in a line: TR-FRET dose response biochemical High Throughput Screening assay for agonists of the steroid receptor coactivator 2 (SRC-2) recruitment by the peroxisome proliferator-activated receptor gamma (PPAR gamma): non-selective agonists. [Related pubchem assays: 1297, 1032 ]. In kind it is functional.

The target of test [7] is T3, CAAX prenyl protease 2 (Saccharomyces cerevisiae S288c, UniProt Q03530).
T3 sequence (Q03530 whole entry): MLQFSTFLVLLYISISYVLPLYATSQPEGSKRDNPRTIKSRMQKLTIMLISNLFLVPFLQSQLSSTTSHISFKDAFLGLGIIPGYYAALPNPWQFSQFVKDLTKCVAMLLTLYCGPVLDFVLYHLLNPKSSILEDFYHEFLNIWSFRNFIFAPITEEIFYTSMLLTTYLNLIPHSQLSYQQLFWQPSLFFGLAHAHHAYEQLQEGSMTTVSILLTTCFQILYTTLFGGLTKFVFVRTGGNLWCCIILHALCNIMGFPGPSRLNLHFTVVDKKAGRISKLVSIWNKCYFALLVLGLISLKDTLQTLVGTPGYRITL
The format is biochemical.

Test [8] has as its target T4, Mannose-6-phosphate isomerase (Homo sapiens, UniProt P34949).
T4 sequence (P34949 whole entry): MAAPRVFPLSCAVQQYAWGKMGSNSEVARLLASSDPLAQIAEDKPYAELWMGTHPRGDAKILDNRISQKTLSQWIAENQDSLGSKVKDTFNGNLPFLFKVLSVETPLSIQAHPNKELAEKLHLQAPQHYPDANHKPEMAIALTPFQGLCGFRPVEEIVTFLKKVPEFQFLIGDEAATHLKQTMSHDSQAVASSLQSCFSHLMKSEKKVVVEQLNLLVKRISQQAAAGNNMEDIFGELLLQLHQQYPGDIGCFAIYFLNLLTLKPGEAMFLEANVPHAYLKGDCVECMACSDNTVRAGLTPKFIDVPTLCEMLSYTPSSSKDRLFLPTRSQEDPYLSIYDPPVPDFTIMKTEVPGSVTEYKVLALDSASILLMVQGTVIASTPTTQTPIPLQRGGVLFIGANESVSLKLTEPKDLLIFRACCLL
As to the kind of experiment: human PMI inhibitors, high substrate, primary screen, biochemical, fluorescence intensity, high mannose 6-phosphate (AID 1220).

Test [9] deals with T1, Cytochrome P450 2D6.
Test [10] deals with Cytochrome P450 3A4 (Homo sapiens, UniProt P08684).
Sequence of Cytochrome P450 3A4 (P08684 whole entry): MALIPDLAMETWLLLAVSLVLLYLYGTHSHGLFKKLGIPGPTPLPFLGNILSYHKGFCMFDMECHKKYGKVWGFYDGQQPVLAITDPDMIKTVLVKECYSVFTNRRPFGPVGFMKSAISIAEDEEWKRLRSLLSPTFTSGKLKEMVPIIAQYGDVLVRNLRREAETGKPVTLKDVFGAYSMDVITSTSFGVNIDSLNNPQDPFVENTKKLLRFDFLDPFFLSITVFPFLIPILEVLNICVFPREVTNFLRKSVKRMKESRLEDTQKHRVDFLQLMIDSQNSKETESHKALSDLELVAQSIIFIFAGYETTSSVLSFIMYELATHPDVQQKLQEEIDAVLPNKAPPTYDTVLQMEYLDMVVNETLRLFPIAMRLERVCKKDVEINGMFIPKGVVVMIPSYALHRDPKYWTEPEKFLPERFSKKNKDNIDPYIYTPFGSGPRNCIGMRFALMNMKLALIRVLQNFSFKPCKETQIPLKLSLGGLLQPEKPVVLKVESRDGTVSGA
The target of test [11] is G-protein coupled receptor 55 (Homo sapiens, UniProt Q9Y2T6). As to the kind of experiment: GPR55 agonists via beta-arrestin recruitment, primary screen, imaging, U2OS cells, beta-arrestin-GFP redistribution (AID 1961). In kind it is functional.
Sequence of G-protein coupled receptor 55 (Q9Y2T6 whole entry): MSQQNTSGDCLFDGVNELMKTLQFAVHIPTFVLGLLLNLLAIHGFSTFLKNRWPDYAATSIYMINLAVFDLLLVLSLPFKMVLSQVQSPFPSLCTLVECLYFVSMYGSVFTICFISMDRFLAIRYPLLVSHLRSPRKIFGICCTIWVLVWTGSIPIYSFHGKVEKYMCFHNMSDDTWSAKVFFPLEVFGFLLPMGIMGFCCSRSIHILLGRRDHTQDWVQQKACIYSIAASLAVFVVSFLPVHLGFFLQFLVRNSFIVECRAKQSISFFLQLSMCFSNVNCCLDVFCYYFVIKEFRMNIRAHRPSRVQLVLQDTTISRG
In test [12] the target is DNA dC->dU-editing enzyme APOBEC-3A (Homo sapiens, UniProt P31941). The experiment in a line: Dose Response confirmation of small molecule APOBEC3A DNA Deaminase Inhibitors via a fluorescence-based single-stranded DNA deaminase assay. [Related pubchem assays (depositor defined):AID493011, AID493024]. The format is functional.
Sequence of DNA dC->dU-editing enzyme APOBEC-3A (P31941 whole entry): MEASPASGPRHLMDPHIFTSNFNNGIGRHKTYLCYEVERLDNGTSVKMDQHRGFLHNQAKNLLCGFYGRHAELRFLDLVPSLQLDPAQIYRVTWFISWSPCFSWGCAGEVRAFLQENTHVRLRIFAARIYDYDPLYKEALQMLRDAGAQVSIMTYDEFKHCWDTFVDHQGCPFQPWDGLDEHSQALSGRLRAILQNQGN
Test [13] deals with DNA dC->dU-editing enzyme APOBEC-3G (Homo sapiens, UniProt Q9HC16). The format is functional.
Sequence of DNA dC->dU-editing enzyme APOBEC-3G (Q9HC16 whole entry): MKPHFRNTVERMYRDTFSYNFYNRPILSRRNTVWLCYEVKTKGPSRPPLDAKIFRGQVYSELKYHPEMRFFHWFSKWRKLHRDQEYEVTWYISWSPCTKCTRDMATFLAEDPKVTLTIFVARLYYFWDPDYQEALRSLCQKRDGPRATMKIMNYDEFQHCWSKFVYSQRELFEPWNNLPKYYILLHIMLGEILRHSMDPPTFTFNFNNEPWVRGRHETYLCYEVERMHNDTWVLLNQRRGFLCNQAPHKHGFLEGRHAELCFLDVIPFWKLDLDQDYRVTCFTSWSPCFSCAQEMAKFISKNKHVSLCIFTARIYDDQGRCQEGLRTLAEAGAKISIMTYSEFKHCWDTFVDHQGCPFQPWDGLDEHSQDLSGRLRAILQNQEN
For test [14], the target named is T5, Tyrosine-protein phosphatase non-receptor type 7 (Homo sapiens, UniProt P35236).
T5 sequence (P35236 whole entry): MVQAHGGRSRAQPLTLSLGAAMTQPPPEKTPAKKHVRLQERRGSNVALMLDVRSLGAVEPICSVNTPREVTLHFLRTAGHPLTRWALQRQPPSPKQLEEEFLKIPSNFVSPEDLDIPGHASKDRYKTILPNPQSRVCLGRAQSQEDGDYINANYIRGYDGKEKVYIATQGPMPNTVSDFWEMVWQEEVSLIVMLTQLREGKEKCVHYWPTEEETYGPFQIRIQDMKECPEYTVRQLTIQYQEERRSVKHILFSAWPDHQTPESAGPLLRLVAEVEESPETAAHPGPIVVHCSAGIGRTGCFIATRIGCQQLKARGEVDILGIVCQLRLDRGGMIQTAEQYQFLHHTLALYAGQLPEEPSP
The experiment in a line: redox-dependent HePTP inhibition, mechanism study, biochemical, fluorescence (AID 2068). The format is functional.

In test [15] the target is T6, Dual specificity protein phosphatase 6 (Rattus norvegicus, UniProt Q64346).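 Also: confirmatory in vitro dose-response testing of MKP-3 inhibition; recombinant His-tagged MKP-3 made in E. coli BL21 with OMFP substrate.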
T6 sequence (Q64346 whole entry): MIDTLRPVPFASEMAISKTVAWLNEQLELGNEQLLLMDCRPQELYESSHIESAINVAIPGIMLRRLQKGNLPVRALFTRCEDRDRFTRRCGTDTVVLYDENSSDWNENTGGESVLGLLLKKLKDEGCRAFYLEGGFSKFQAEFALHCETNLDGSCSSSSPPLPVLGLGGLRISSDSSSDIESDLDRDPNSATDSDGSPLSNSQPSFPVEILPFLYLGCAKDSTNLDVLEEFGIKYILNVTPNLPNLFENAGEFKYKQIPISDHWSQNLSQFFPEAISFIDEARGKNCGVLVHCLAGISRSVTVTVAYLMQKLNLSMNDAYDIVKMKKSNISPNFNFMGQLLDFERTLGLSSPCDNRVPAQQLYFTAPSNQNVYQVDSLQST
The format is functional.

Active and inactive are the calls of the source.

Usually IC50 stands for the concentration that gives 50% inhibition. What is called EC50 is the concentration that produces a half-maximal response.

Sequence of Cytochrome P450 2C9 (P11712 whole entry): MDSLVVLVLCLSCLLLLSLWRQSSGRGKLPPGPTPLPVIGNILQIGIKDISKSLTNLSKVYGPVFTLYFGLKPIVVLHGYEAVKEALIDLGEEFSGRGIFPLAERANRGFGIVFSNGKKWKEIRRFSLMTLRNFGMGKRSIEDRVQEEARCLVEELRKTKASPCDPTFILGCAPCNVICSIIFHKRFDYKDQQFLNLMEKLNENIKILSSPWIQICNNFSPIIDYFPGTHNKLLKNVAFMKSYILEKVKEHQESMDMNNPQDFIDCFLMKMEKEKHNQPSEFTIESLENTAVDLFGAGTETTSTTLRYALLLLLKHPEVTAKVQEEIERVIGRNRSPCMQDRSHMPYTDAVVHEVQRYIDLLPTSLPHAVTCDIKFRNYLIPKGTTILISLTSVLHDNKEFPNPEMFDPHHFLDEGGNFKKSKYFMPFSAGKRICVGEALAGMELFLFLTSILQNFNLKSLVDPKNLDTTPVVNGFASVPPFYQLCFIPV
T1 sequence (P10635 whole entry): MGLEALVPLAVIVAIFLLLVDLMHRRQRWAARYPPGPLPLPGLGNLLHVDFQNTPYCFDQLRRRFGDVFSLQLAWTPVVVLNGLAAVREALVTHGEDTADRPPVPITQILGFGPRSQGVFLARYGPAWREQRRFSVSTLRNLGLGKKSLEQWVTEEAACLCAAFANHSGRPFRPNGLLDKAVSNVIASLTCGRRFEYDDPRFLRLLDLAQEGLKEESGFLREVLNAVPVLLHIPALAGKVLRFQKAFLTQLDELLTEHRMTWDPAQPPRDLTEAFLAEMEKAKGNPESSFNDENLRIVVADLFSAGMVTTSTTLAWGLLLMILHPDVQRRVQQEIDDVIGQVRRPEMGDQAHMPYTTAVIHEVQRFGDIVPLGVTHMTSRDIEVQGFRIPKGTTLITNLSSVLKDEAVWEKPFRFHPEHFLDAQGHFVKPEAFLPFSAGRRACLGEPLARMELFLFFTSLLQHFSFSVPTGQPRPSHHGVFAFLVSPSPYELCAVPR
Sequence of Peroxisome proliferator-activated receptor gamma/Nuclear receptor coactivator 1 (P37231 whole entry): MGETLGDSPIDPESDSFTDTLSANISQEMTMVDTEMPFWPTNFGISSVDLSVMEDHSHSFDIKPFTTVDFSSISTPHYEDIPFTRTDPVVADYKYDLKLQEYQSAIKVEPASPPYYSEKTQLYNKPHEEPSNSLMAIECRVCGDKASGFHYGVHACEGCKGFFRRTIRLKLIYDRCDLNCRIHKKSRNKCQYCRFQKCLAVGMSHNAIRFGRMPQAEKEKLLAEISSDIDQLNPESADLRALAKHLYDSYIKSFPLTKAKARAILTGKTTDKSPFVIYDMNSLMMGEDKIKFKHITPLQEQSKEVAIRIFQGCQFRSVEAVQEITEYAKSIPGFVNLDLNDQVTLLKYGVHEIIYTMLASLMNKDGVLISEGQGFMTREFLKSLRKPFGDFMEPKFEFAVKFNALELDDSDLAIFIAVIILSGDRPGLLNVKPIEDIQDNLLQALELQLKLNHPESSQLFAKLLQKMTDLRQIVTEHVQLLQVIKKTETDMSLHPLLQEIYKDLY
Sequence of Peroxisome proliferator-activated receptor gamma/Nuclear receptor coactivator 1 (Q15788 whole entry, further chain): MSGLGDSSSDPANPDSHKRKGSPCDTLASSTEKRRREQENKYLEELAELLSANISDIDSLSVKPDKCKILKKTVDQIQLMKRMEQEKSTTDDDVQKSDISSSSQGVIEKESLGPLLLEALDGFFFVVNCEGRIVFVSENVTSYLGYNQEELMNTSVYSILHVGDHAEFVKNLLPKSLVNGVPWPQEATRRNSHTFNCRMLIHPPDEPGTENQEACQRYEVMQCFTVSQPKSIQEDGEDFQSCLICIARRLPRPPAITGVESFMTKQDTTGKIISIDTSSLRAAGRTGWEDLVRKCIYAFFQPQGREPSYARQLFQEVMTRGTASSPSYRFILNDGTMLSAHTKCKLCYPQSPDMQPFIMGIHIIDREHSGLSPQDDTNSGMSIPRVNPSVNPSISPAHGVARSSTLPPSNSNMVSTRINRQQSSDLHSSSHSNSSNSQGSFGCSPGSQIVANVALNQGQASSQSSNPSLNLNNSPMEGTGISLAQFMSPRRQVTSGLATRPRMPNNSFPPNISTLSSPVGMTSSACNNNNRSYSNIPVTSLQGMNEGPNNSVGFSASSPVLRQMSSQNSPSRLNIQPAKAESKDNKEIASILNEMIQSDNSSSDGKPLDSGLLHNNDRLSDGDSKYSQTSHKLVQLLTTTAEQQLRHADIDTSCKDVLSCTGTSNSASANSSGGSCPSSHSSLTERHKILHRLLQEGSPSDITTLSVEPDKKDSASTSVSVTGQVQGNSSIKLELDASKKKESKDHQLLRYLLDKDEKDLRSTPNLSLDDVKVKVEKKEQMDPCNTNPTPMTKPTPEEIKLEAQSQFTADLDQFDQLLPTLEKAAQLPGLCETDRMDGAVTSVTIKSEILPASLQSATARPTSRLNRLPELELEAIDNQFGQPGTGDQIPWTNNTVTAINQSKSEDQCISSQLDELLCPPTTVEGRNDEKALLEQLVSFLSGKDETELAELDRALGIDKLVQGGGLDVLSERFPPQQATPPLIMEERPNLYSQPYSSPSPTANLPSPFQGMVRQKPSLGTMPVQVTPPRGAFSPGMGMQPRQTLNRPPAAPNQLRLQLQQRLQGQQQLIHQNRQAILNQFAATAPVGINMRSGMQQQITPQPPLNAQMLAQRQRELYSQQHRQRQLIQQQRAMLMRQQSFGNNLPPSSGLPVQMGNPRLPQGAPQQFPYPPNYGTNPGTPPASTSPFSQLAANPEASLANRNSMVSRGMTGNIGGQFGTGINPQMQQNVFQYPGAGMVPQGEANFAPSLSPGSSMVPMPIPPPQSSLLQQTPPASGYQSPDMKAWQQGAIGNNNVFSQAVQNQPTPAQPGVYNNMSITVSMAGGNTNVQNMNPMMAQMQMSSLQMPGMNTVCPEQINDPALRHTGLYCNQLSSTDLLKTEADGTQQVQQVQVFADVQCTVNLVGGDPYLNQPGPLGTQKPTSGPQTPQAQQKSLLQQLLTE

Take `NCCC[C@@H](CC(=O)N[C@@H]1CCNC[C@H]1C(=O)N[C@H](CC(=O)N[C@@H](CCC(=O)O)CC(=O)O)Cc1c[nH]c2ccccc12)NC(=O)C[C@H](Cc1c[nH]c2ccccc12)NC(=O)[C@@H]1CNCC[C@H]1N`: the AC50 in test [1] is 31.6 µM (inconclusive); in test [2], 39.8 µM (inconclusive). As for `Cc1ccc2c(c1)N(CC(=O)NC1CCCc3ccccc31)C(=O)CO2` (stereo not drawn), the IC50 in test [3] is given as > 50 µM (not active).

For the compound `CCn1c(=O)cc(SCC(=O)NCC2CCCO2)c2ccccc21` (stereo not drawn), the EC50 in test [4] is > 79.4 µM (inactive); in test [5], > 79.4 µM (not active); in [6], > 79.4 µM (not active).

With `CC(C)C[C@@H](CC(=O)N[C@@H](CCC(=O)O)CC(=O)O)NC(=O)[C@@H]1CNCC[C@H]1NC(=O)C[C@@H](NC(=O)C[C@H](CO)NC(=O)[C@@H]1CNCC[C@H]1N)C(C)C`, the AC50 in test [1] was 6.31 µM (inconclusive). Turning to `O=c1c(-c2ccccc2)c(O)c2ccccc2n1-c1ccccc1`, the AC50 in test [7] is 5.31 µM (active). On to `CCOCCCNC(=O)c1cnc2ccc(S(=O)(=O)Nc3cccc(OC)c3)cc2c1O`, for which, in test [3], the IC50 is 35.2 µM (not active). Take `O=[N+]([O-])c1ccc2c(c1NC1CCCCC1)=NC1(CCCCC1)[N+]=2[O-]`: the IC50 in test [8] was > 50 µM (not active). The AC50 in [9] is 14.1 µM (inconclusive); in [10], 3.16 µM (inconclusive).

With `CC(=O)O[C@@H]1CC[C@]2(C)[C@H]3CC[C@]4(C)[C@H](C[C@H]5CCCC[C@@]54C(C)=O)[C@@H]3CC(=O)[C@@]2(O)C1`, the AC50 in test [1] is 25.1 µM (inconclusive). In the case of `COCc1nnc(NC(=O)CCSc2ccccc2)s1`, the EC50 in test [11] was > 32 µM (inactive). For `COc1ccc(/C=C2\Sc3ccc(C(=O)NC4CC4)cc3N(C)C2=O)cc1OC`, the EC50 in [11] was > 32 µM (inactive).

As for `Cc1ccccc1NC(=S)Nc1cccc2cnccc12`, the IC50 in test [8] was > 50 µM (not active). Take `CCCC[n+]1c(C)sc2cc(OC)ccc21`: the IC50 in [12] was 36 µM (active); in test [13], > 100 µM (inactive). `COc1ccccc1C1=NN(C(S)=Nc2ccccc2)C(c2ccco2)C1` (stereo not drawn): the EC50 in test [4] was 19.7 µM (inactive); in test [5] it was > 79.4 µM (not active); in test [6] it was > 79.4 µM (not active). Take `O=C(NCCC1=CCCCC1)Nc1ccc2nc(-c3ccco3)c(-c3ccco3)nc2c1`: the concentration for half-maximal inhibition (IC50) in [14] is 2.73 µM (active). As to `COc1cc(C(=S)NCc2ccc(O)cc2)ccc1O`, the results for the 50% inhibitory concentration (IC50) in test [14] and in test [15] were 10.1 µM (active) and > 100 µM (inactive), respectively. Turning to `C[N+](C)(C)CCCCCC(=O)C=NO`, the half-maximal inhibitory concentration (IC50) in test [12] is 5.54 µM (active); in test [13], 12.6 µM (active). Turning to `COc1cc(C(=S)NCc2ccc(C)cc2C)ccc1O`, the concentration for half-maximal inhibition (IC50) is 1.64 µM (active) in [14] and > 100 µM (inactive) in [15].
